Laboratory results published in patent publication US20050209278A1, “Piperidinyl- and piperazinyl-sulfonylmethyl hydroxamic acids and their use as protease inhibitors” (priority 2002, published 2005).
Structures can show the parent of a compound that is named as a salt.

Tests used:
Type in all cases: biochemical
MMP-1 = biological target: T1, MMP-1 (Homo sapiens, UniProt P03956); test: MMP-1 inhibition (in vitro Ki); settings: Table 8; read-out: MMP-1 Ki
T1 construct: made in house; host or cells: MMP-1-transfected HT-1080 cells (spent media)
T1 sequence (P03956 100-469): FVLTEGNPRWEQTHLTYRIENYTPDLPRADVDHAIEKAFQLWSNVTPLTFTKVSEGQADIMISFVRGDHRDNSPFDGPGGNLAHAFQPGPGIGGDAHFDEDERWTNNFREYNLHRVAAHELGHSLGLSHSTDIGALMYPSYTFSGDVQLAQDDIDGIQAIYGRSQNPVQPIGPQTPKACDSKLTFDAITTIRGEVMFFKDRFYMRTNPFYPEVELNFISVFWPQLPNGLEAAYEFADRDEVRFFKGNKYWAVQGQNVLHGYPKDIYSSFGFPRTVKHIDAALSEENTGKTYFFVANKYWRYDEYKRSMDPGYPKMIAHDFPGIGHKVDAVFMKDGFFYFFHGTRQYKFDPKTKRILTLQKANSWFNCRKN

MMP-2 = biological target: T2, MMP-2 (Homo sapiens, UniProt P08253); test: MMP-2 inhibition (in vitro Ki); settings: Table 8; read-out: MMP-2 Ki
T2 construct: made in house; host or cells: MMP-2-transfected p2AHT2 cells
T2 sequence (P08253 110-660): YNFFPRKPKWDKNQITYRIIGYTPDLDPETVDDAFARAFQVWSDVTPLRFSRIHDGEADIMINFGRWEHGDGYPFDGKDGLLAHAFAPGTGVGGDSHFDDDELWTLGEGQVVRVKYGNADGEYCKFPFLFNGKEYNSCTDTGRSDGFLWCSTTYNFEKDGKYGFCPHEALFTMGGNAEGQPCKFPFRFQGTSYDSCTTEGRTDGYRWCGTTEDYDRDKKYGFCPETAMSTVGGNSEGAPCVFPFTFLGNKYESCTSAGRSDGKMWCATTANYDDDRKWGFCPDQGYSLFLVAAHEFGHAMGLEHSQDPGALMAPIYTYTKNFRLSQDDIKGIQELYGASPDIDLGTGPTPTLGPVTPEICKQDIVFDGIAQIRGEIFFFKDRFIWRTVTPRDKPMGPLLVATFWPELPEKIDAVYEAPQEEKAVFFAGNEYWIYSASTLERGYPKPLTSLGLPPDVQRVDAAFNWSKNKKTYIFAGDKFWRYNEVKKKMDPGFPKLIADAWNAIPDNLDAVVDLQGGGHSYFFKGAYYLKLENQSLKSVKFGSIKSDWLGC

MMP-9 = biological target: T3, MMP-9 (Homo sapiens, UniProt P14780); test: MMP-9 inhibition (in vitro Ki); settings: Table 8; read-out: MMP-9 Ki
T3 construct: made in house; host or cells: MMP-9-transfected HT1080 cells (spent media)

MMP-13 = biological target: T4, MMP-13 (Homo sapiens, UniProt P45452); test: MMP-13 inhibition (in vitro Ki); settings: Table 8; read-out: MMP-13 Ki
T4 construct: made in house; host or cells: baculovirus / insect cells

MMP-14 = biological target: T5, MMP-14 (Homo sapiens, UniProt P50281); test: MMP-14 inhibition (in vitro Ki); settings: Table 8; read-out: MMP-14 Ki
T5 construct: The catalytic domain enzyme was expressed in E. coli inclusion bodies, solubilized in urea; made in house

T3 sequence (P14780 107-707 limits assumed): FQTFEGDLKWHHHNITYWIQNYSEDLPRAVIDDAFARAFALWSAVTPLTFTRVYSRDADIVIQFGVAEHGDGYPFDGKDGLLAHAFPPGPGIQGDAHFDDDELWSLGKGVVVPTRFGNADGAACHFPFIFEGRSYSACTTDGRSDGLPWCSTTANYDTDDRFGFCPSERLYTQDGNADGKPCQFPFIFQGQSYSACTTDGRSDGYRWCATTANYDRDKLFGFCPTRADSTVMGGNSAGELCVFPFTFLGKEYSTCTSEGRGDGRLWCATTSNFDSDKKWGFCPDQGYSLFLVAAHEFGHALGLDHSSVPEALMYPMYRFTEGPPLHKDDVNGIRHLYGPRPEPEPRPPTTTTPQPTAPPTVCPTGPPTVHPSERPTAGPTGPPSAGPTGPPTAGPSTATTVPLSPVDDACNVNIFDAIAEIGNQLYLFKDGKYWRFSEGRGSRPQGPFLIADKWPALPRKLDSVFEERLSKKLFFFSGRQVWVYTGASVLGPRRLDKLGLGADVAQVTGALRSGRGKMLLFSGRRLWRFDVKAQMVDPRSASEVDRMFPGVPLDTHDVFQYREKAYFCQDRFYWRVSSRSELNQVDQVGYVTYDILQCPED

SMILES | Ki (MMP-1) [µM] | Ki (MMP-2) [µM] | Ki (MMP-9) [µM] | Ki (MMP-13) [µM] | Ki (MMP-14) [µM]
CCCOCCCCC1CCN(S(=O)(=O)C2(C(=O)NO)CCOCC2)CC1 [Example A39, 4-[4-(4-propoxy-butyl)-piperidine-1-sulfonyl]-tetrahydro-pyran-4-carboxylic Acid Hydroxyamide] | 1.99 | 0.0125 | 0.01 | 0.00199 | 1.41
O=C(NO)C1(S(=O)(=O)N2CCC(CCCCOCCCC(F)(F)F)CC2)CCOCC1 [Example A40, 4-{4-[4-(4,4,4-trifluoro-butoxy)-butyl]-piperidine-1-sulfonyl}-tetrahydro-pyran-4-carboxylic Acid Hydroxyamide] | 4.26 | 0.00699 | 0.0464 | 0.0006 | 3.42
CCCCCCOCC1CCN(S(=O)(=O)C2(C(=O)NO)CCOCC2)CC1 [Example A41, 4-(4-hexyloxymethyl-piperidine-1-sulfonyl)-tetrahydro-pyran-4-carboxylic Acid Hydroxyamide] | > 10 | 0.00838 | 0.00179 | 0.00795 | 7.21
O=C(NO)C1(S(=O)(=O)N2CCC(COCCCC(F)(F)F)CC2)CCOCC1 [Example A42, 4-[4-(4,4,4-trifluoro-butoxymethyl)-piperidine-1-sulfonyl]-tetrahydro-pyran-4-carboxylic Acid Hydroxyamide] | > 10 | 0.022 | 0.0286 | 0.0333 | > 10
O=C(NO)C1(S(=O)(=O)N2CCC(CCCCCC(F)(F)F)CC2)CCOCC1 [Example A43, 4-[4-(6,6,6-Trifluoro-hexyl)-piperidine-1-sulfonyl]-tetrahydro-pyran-4-carboxylic Acid Hydroxyamide] | 3.1 | 0.00033 | 0.00019 | 0.00058 | 0.757
CCCCOCCC1CCN(S(=O)(=O)C2(C(=O)NO)CCOCC2)CC1 [Example A44, 4-[4-(2-butoxy-ethyl)-piperidine-1-sulfonyl]-tetrahydro-pyran-4-carboxylic Acid Hydroxyamide] | > 10 | 0.0273 | 0.0125 | 0.0382 | > 10
O=C(NO)C1(S(=O)(=O)N2CCC(CCOCCCC(F)(F)F)CC2)CCOCC1 [Example A45, 4-{4-[2-(4,4,4-trifluoro-butoxy)-ethyl]-piperidine-1-sulfonyl}-tetrahydro-pyran-4-carboxylic Acid Hydroxyamide] | > 10 | 0.0236 | 0.0168 | 0.0122 | > 10
O=C(NO)C1(S(=O)(=O)N2CCC(CCCCOCCC(F)(F)F)CC2)CCOCC1 [Example A46, 4-{4-[4-(3,3,3-trifluoro-propoxy)-butyl]-piperidine-1-sulfonyl}-tetrahydro-pyran-4-carboxylic Acid Hydroxyamide] | 1.5 | 0.00597 | 0.0175 | 0.00052 | 3.61
CCCCCOCCC1CCN(S(=O)(=O)C2(C(=O)NO)CCOCC2)CC1 [Example A47, 4-[4-(2-pentyloxy-ethyl)-piperidine-1-sulfonyl]-tetrahydro-pyran-4-carboxylic Acid Hydroxyamide] | > 10 | 0.0186 | 0.0102 | 0.0127 | > 10
O=C(NO)C1(S(=O)(=O)N2CCC(OCCCCCCC(F)(F)F)CC2)CCOCC1 [Example A48, 4-[4-(7,7,7-trifluoro-heptyloxy)-piperidine-1-sulfonyl]-tetrahydro-pyran-4-carboxylic Acid Hydroxyamide] | > 10 | 0.00349 | 0.00823 | 0.00113 | 2.71
O=C(NO)C1(S(=O)(=O)N2CCC(OCCCCCC(F)(F)F)CC2)CCOCC1 [Example A49, 4-[4-(6,6,6-trifluoro-hexyloxy)-piperidine-1-sulfonyl]-tetrahydro-pyran-4-carboxylic Acid Hydroxyamide] | > 10 | 0.00381 | 0.0031 | 0.00287 | 6.74
O=C(NO)C1(S(=O)(=O)N2CCC(OCCCCCC(F)(F)C(F)(F)F)CC2)CCOCC1 [Example A50, 4-[4-(6,6,7,7,7-pentafluoro-heptyloxy)-piperidine-1-sulfonyl]-tetrahydro-pyran-4-carboxylic Acid Hydroxyamide] | > 10 | 0.00157 | 0.0071 | 0.0006 | 4.56
O=C(NO)C1(S(=O)(=O)N2CCC(CCCCCCC(F)(F)C(F)(F)F)CC2)CCOCC1 [Example A51, 4-[4-(7,7,8,8,8-pentafluoro-octyl)-piperidine-1-sulfonyl]-tetrahydro-pyran-4-carboxylic Acid Hydroxyamide] | 5.11 | 0.00027 | 0.00101 | 0.00027 | 1.26
O=C(NO)C1(S(=O)(=O)N2CCC(CCCCCCCC(F)(F)F)CC2)CCOCC1 [Example A52, 4-[4-(8,8,8-trifluoro-octyl)-piperidine-1-sulfonyl]-tetrahydro-pyran-4-carboxylic Acid Hydroxyamide] | 3.93 | 0.00055 | 0.00103 | 0.00023 | 0.922
O=C(NO)C1(S(=O)(=O)N2CCC(CCCCC(F)(F)C(F)(F)F)CC2)CCOCC1 [Example A53, 4-[4-(5,5,6,6,6-pentafluoro-hexyl)-piperidine-1-sulfonyl]-tetrahydro-pyran-4-carboxylic Acid Hydroxyamide] | 2.88 | 0.0011 | 0.00246 | 0.00245 | 2.36
O=C(NO)C1(S(=O)(=O)N2CCC(CCCCCC(F)(F)C(F)(F)F)CC2)CCOCC1 [Example A54, 4-[4-(6,6,7,7,7-pentafluoro-heptyl)-piperidine-1-sulfonyl]-tetrahydro-pyran-4-carboxylic Acid Hydroxyamide] | > 10 | 0.00106 | 0.00081 | 0.00067 | 3.41
O=C(NO)C1(S(=O)(=O)N2CCC(c3ccc(CCC(F)(F)C(F)(F)F)cn3)CC2)CCCCC1 [Example A56, N-hydroxy-1-({4-[5-(3,3,4,4,4-pentafluorobutyl)pyridin-2-yl]piperidin-1-yl}sulfonyl)cyclohexanecarboxamide Hydrochloride] | 2.47 | 0.00047 | 0.00015 | 0.00014 | 1.01
O=C(NO)C1(S(=O)(=O)N2CCC(c3ccc(OCC(F)(F)F)cn3)CC2)CCOCC1 [Example A57, N-hydroxy-4-({4-[5-(2,2,2-trifluoroethoxy)pyridin-2-yl]piperidin-1-yl}sulfonyl)tetrahydro-2H-pyran-4-carboxamide Hydrochloride] | 1.57 | 0.00053 | 0.00048 | 0.00034 | 2.02
O=C(NO)C1(S(=O)(=O)N2CCC(c3ccc(OCC(F)(F)C(F)(F)F)cn3)CC2)CCOCC1 [Example A58, N-hydroxy-4-({4-[5-(2,2,3,3,3-pentafluoropropoxy)pyridin-2-yl]piperidin-1-yl}sulfonyl)tetrahydro-2H-pyran-4-carboxamide Hydrochloride] | 1.55 | 0.00052 | 0.00137 | 0.00024 | 6.23
